In PubChem BioAssay (NCI):
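Dose response: 5 concentrations. Exposure: 48 h. Format: 96-well plates. Endpoint: linear interpolation; highest concentration if not reached. Here, GI50 denotes the concentration required for 50% inhibition of growth. TGI denotes the concentration required for complete inhibition of growth.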

How the values were obtained:
Assay in all cases: NCI tumour cell line growth inhibition, 48 h
HL-60(TB) leukemia = tested on: HL-60(TB) leukemia
SK-OV-3 ovarian = tested on: SK-OV-3 ovarian
EKVX NSCLC = tested on: EKVX NSCLC
SR leukemia = tested on: SR leukemia
HCT-116 colon = tested on: HCT-116 colon
OVCAR-3 ovarian = tested on: OVCAR-3 ovarian
SNB-19 CNS = tested on: SNB-19 CNS
NCI-H522 lung = tested on: NCI-H522 lung
MALME-3M melanoma = tested on: MALME-3M melanoma
MDA-MB-435 = tested on: MDA-MB-435

SMILES | GI50 (HL-60(TB) leukemia) [µM] | TGI (HL-60(TB) leukemia) [µM] | GI50 (SK-OV-3 ovarian) [µM] | TGI (SK-OV-3 ovarian) [µM] | GI50 (EKVX NSCLC) [µM] | TGI (EKVX NSCLC) [µM] | GI50 (SR leukemia) [µM] | TGI (SR leukemia) [µM] | GI50 (HCT-116 colon) [µM] | TGI (HCT-116 colon) [µM] | GI50 (OVCAR-3 ovarian) [µM] | TGI (OVCAR-3 ovarian) [µM] | GI50 (SNB-19 CNS) [µM] | TGI (SNB-19 CNS) [µM] | GI50 (NCI-H522 lung) [µM] | TGI (NCI-H522 lung) [µM] | GI50 (MALME-3M melanoma) [µM] | TGI (MALME-3M melanoma) [µM] | GI50 (MDA-MB-435) [µM] | TGI (MDA-MB-435) [µM]
O=C(N/N=C/c1ccc(O)cc1O)c1ccc(Nc2ccnc(C(F)(F)F)c2)cc1 | > 34.1 | > 100 | 9.67 | > 80.1 | 8.91 | > 75.1 | > 100 | > 100 | 39.1 | > 100 | 0.35 | > 100 | 14 | > 56.5 | 13.5 | > 70 | 0.661 | > 45.6 | > 100 | > 100
CCOc1cc2ncc(C#N)c(Nc3ccc(F)c(Cl)c3)c2cc1NC(=O)/C=C/CN(C)C | 0.57 | > 5.51 | 0.022 | 0.139 | 0.0187 | > 6.51 | 0.414 | 2.4 | 0.333 | 1.83 | 0.216 | 1.77 | 1.61 | > 10 | 0.0231 | 0.732 | 0.36 | 1.87 | 0.323 | 1.42
Cc1ccc2c(=O)[nH]sc2c1 |  | 30.8 |  | > 100 |  | 30.6 |  | 18.7 |  | > 100 |  | 43.5 |  | > 100 |  | 8.26 |  | 45.6 |  | 27.6
Cc1ccc(NS(=O)(=O)c2cc(C)ccc2C)cc1 | 3.65 | 27 | 3.68 | 21.3 | 11.8 | 92.7 | 1.18 | 16.5 | 3.55 | 20.4 | 2.53 | 7.12 | 4.36 | > 100 | 2.02 | 7.61 | 5.36 | 38.6 | 0.351 | 2.57
COc1cccc(/C=C/C(=O)c2cc3c(N)c(C(=O)Nc4cccc(Cl)c4C)sc3nc2C)c1 | 0.927 | 2.84 | 2.2 | > 50 | 2.61 | > 31.8 | 0.217 | > 12.3 | 0.605 | 1.42 | 0.854 | 2 | 1.29 | 6.18 | 0.424 | 2.86 | 1.34 | 7.76 | 0.345 | 1.32
O=C(c1cc(-c2cc3c(cc2C(=O)N2Cc4ccccc4C[C@H]2CN2CCOCC2)OCO3)n2c1CCCC2)N(c1ccccc1)c1ccc(O)cc1 | 2.62 | 7.16 | 12.7 | > 100 | 5.31 | > 100 | 3.09 | > 100 | 13.6 | > 100 | 5.55 | > 100 | 7.13 | > 100 | 22.9 | > 100 | 15.6 | > 100 | 8.55 | 98.9
CN(C)CCCn1c2c3ccccc3ccc2c2oc(=O)c3ccccc3c21 |  | 93.9 |  | > 61.8 |  | 60.7 |  | 5.56 |  | 5.05 |  | 9.22 |  | 29.2 |  | 10.6 |  | 29.8 |  | > 20
